Measurements reported in patent publication US8748484B2, “Organometallic anti-cancer complexes” (Research Foundation of The City University of New York, priority 2011, dated 2014).

Experiments:
Experiment in all cases: Antiproliferative activity, viable cell count (trypan blue) after 96 hours
Format in all cases: cell-based, human
[1] = test system: DU145; conditions: for IC50: DU145, Prostate, 96 hours, 50% growth inhibition vs DMSO
Experimental: (§1) The antiproliferative activity of compounds 1-4 was determined in the seven types of human cancer cell lines K562 (Chronic Myelogenous Leukemia, CML), HT-29 (colon), and HL-60 (Acute Myloid Leukemia, AML), DU-145 (prostate), MCF-7 (breast), and GRANTA-519 (Mantle Cell Leukemia, MCL), and NSCL (non small cell lung carcinoma) and compared with cisplatin.
(§2) Human cancer cells were plated in twelve-well dishes at a cell density of 2.5×10^4 cells/ml/well. The cells were treated, in duplicate, 24 hours later with increasing concentrations of each compound or cisplatin from Sigma (Table 3). The total number of viable cells was determined after 96 hours later by cell counting by hemacytometer and trypan blue staining. The percentage of viable cells remaining was calculated as follows: number of viable cells (compound treated)/number of viable cells (DMSO treated)*100. Compound 1 dose response assay plot (FIG. 3) is the average percent viable cells of the treated compared to the vehicle (DMSO) treated cells. DU-145, MCF-7, HT-29, H460 cells were grown in DMEM and K562, HL-60, Granata-519 cells were grown in RPMI medium both supplemented with 10% FBS (cell Generation) and 1 unit penicillin. Cells were routinely grown and treated at 37° C. under 90% humidity. The IC50 (50% growth inhibition as compared to DMSO treated control) values in micromoles were determined by extrapolation from the dose response curves. Dose response curves were generated by plotting the percentage of cells at each concentration versus concentration tested. Compound 1 was chosen to produce more detailed growth curves based on overall highest activity profile. Similarly, cells were treated at increasing concentrations of cisplatin and detailed growth curves were generated (FIG. 4). Thus the activity of compound 1 was compared to cisplatin.

[2] = test system: GRANTA-519; conditions: for IC50: GRANTA-519, MCL, 96 hours, 50% growth inhibition vs DMSO
Experimental: as §1, §2

[3] = test system: H460; conditions: for IC50: H460, NSCLC, 96 hours, 50% growth inhibition vs DMSO, Compound 4 values above 25 μM are estimates from the plot 1-25 μM
Experimental: as §1, §2

[4] = test system: HL-60; conditions: for IC50: HL-60, AML, 96 hours, 50% growth inhibition vs DMSO
Experimental: as §1, §2

[5] = test system: HT-29; conditions: for IC50: HT-29, Colon, 96 hours, 50% growth inhibition vs DMSO, Compound 4 values above 25 μM are estimates from the plot 1-25 μM
Experimental: as §1, §2

[6] = test system: K562; conditions: for IC50: K562, CML, 96 hours, 50% growth inhibition vs DMSO, Compound 4 values above 25 μM are estimates from the plot 1-25 μM
Experimental: as §1, §2

[7] = test system: MCF-7; conditions: for IC50: MCF-7, Breast, 96 hours, 50% growth inhibition vs DMSO, Compound 4 values above 25 μM are estimates from the plot 1-25 μM
Experimental: as §1, §2

Compound | IC50 [1] | IC50 [2] | IC50 [3] | IC50 [4] | IC50 [5] | IC50 [6] | IC50 [7] | anticancer activity relative to cisplatin ([1]; DU-145, times more potent than cisplatin) | anticancer activity relative to cisplatin ([2]; GRANTA-519, times more potent than cisplatin) | anticancer activity relative to cisplatin ([3]; NSCL (non small cell lung carcinoma)) | anticancer activity relative to cisplatin ([4]; HL-60, times higher than cisplatin) | anticancer activity relative to cisplatin ([5]; HT-29, times higher than cisplatin) | anticancer activity relative to cisplatin ([6]; K562, times higher than cisplatin) | anticancer activity relative to cisplatin ([7]; MCF-7, times more potent than cisplatin)
N.N.[Cl][Pt][Cl] [Cisplatin, reference compound] | 1 µM | 0.25 µM | 0.75 µM | 0.75 µM | 3 µM | 1.5 µM | 1.5 µM | – | – | – | – | – | – | –
CC1=C2[O][Ru-]3(=[C]=O)(=[C]=O)([O+]=C2C=CO1)[Ru](=[C]=O)(=[C]=O)(=[C]=O)(=[C]=O)[Ru-]31(=[C]=O)(=[C]=O)[O]C2=C(C)OC=CC2=[O+]1 [Cmpd 1, [Ru3(CO)8(C12H10O6)]] | 0.5 µM | 0.075 µM | 0.75 µM | 0.1 µM | 0.5 µM | 0.3 µM | 0.4 µM | 2-3 times | 2-3 times | the same as cisplatin | 5-7 times | 5-7 times | 5-7 times | 2-3 times
CC1=C2[O][Ru-]3(=[C]=O)(=[C]=O)([O+]=C2C=CO1)[Ru](=[C]=O)(=[C]=O)(=[C]=O)([P](c1ccccc1)(c1ccccc1)c1ccccc1)[Ru-]31(=[C]=O)(=[C]=O)[O]C2=C(C)OC=CC2=[O+]1 [Cmpd 2, [Ru3(CO)7(C12H10O6)(PPh3)]] | 2.5 µM | – | 5 µM | 0.75 µM | 5 µM | 2.5 µM | 2.5 µM | – | – | – | – | – | – | –
[Ru3(CO)6(C12H10O6)(dppe)] [Cmpd 4] | 10 µM | – | – | – | – | – | – | – | – | – | – | – | – | –
[Ru3(CO)6(C12H10O6)(dppm)] [Cmpd 3] | 25 µM | – | 70 µM | 25 µM | > 100 µM | 30 µM | 75 µM | – | – | – | – | – | – | –
